# Measurements taken from patent US10233151B2, “Use of a novel 3-aryl-4-catechol-pyrrole-N-propanol compound and the derivatives thereof to treat cancer and diseases related to excessive angiogenesis” (Centre National de la Recherche Scientifique (CNRS), priority 2014, dated 2019).
# Test system: human endothelial cells (HUVEC)
# Experiment: De novo formation of vascular tubes on Matrigel
# Type: cell-based
# Details: HUVEC in Matrigel, 24 hours
# Experimental: In order to monitor the effect of compound (1) on “de novo” formation of vascular tubes, human endothelial cells (HUVEC) were cultured in a matrix (Matrigel), in the presence or absence of compound (1). After 24 hours, the effect of compound (1) is analyzed by optical microscopy and is illustrated by photographs. […] Compound (1) thus acts directly on growing endothelial cells by blocking the formation of capillaries, in contrast to the absence of effect on a capillary network already formed, in the “quiescent” state.
compound,measurement,value
OCCCn1cc(-c2ccccc2)c(-c2ccc(O)c(O)c2)c1 [compound (1)],de novo formation of vascular tubes (capillaries),prevents the formation of capillaries
